target: T1, human neutrophil elastase (HNE) (Homo sapiens, UniProt P08246); assay: HNE enzyme assay (human neutrophil elastase enzyme activity, fluorogenic peptide substrate); format: biochemical; conditions: human leukocyte elastase 0.00072 U/mL; MeOSuc-Ala-Ala-Pro-Val-AMC 100 μM; 25° C., 30 minutes; at least two separate experiments; read-out: HNE inhibition (IC50 values)
T1 construct: purchased Sigma E8140
T1 sequence (P08246 30-267): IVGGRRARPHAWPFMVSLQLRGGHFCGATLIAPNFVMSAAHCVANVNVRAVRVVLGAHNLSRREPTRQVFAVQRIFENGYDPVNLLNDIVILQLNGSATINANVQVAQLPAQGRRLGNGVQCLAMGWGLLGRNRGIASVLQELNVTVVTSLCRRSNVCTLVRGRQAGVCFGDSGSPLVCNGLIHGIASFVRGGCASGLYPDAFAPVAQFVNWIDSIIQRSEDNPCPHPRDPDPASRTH
Method: Compounds of this invention were tested for potency in a human neutrophil elastase (HNE) enzyme activity assay.
Assays were performed in 96-well plates in a total assay volume of 100 μL. The final concentration of elastase enzyme (human leukocyte elastase, Sigma E8140) was 0.00072 U/mL. The peptide substrate (MeOSuc-Ala-Ala-Pro-Val-AMC, Calbiochem #324740) was used at a final concentration of 100 μM. The final concentration of DMSO was 1% in the assay buffer (0.05M Tris.HCl, 0.1M NaCl, 0.1M CaCl2, 0.0005% brij-35, pH 7.5). The enzymatic reaction was started by addition of the enzyme and incubated at 25° C. for 30 minutes. After incubation, the reaction was stopped by addition of soybean trypsin inhibitor (Sigma T9003) at a final concentration of 50 μg/well. Fluorescence was measured using a Molecular Devices fluorescence plate reader using 380 nm excitation and 460 nm emission wavelengths.
A dose response to each compound was performed and the effect of the compound in each experiment was expressed as a percentage inhibition of the control enzyme fluorescence. Dose response curves were plotted and compound potency (IC50) was determined. Compounds were tested in at least two separate experiments.

First: COC(=O)C1=C(C)N(c2cccc(C(F)(F)F)c2)c2n[nH]c(=O)n2[C@H]1c1ccc(C#N)cc1OC (racemic) [Example 33b]
Second: COCCOc1cc(C#N)ccc1[C@@H]1C(C(=O)OC)=C(C)N(c2cccc(C(F)(F)F)c2)c2n[nH]c(=O)n21 (single isomer, unassigned) [Example 34a]
The IC50 of the first is higher: 20 to 100 nM for the first, under 20 nM for the second.

Compared with `CC1=C(C#N)[C@@H](c2ccc(C#N)cc2C(O)CO)n2c(n[nH]c2=O)N1c1cccc(C(F)F)c1` (mixture of isomers) [Example 39d, (R) and (S)-5-[4-Cyano-2-(1,2-dihydroxy-ethyl)-phenyl]-8-(3-difluoromethyl-phenyl)-7-methyl-3-oxo-2,3,5,8-tetrahydro-[1,2,4]triazolo[4,3-a]pyrimidine-6-carbonitrile], `CC1=C(C#N)C(c2ccc(C#N)cc2C(O)CO)n2c(n[nH]c2=O)N1c1cccc(C(F)F)c1` (single isomer, unassigned) [Example 39b] is higher in IC50: 20 to 100 nM for the first, 100 to 500 nM for the second.

Compared with `COCCOc1cc(C#N)ccc1[C@@H]1C(C(=O)OC)=C(C)N(c2cccc(C(F)(F)F)c2)c2n[nH]c(=O)n21` (single isomer, unassigned) [Example 34b], `CC1=C(C#N)[C@@H](c2ccc(C#N)cc2CCO)n2c(n[nH]c2=O)N1c1cccc(C(F)(F)F)c1` [Example 36, (R)-5-[4-Cyano-2-(2-hydroxy-ethyl)-phenyl]-7-methyl-3-oxo-8-(3-trifluoromethyl-phenyl)-2,3,5,8-tetrahydro-[1,2,4]triazolo[4,3-a]pyrimidine-6-carbonitrile] is lower in IC50: 20 to 100 nM for the first, under 20 nM for the second.

`CC1=C(C#N)[C@@H](c2ccc(C#N)cc2C(O)CO)n2c(n[nH]c2=O)N1c1cccc(C(F)(F)F)c1` (single isomer, unassigned) [Example 35a] and `CC1=C(C#N)[C@@H](c2ccc(C#N)cc2C(O)CO)n2c(n[nH]c2=O)N1c1cccc(C(F)F)c1` (single isomer, unassigned) [Example 39a] cannot be ordered by IC50: under 20 nM for the first, under 20 nM for the second.

`CC1=C(C#N)[C@@H](c2ccc(C#N)cc2CCO)n2c(n[nH]c2=O)N1c1cccc(C(F)F)c1` (single isomer, unassigned) [Example 38a] and `CC1=C(C#N)[C@@H](c2ccc(C#N)cc2CCS(C)(=O)=O)n2c(n[nH]c2=O)N1c1cccc(C(F)(F)F)c1` [Example 37, (R)-5-[4-Cyano-2-(2-methanesulfonyl-ethyl)-phenyl]-7-methyl-3-oxo-8-(3-trifluoromethyl-phenyl)-2,3,5,8-tetrahydro-[1,2,4]triazolo[4,3-a]pyrimidine-6-carbonitrile] cannot be ordered by IC50: under 20 nM for the first, under 20 nM for the second.

Molecule `CC1=C(C#N)[C@@H](c2ccc(C#N)cc2CCO)n2c(n[nH]c2=O)N1c1cccc(C(F)F)c1` (single isomer, unassigned) [Example 38b] has an IC50 of 100 to 500 nM.
